Results published in ChEMBL document CHEMBL1201862, “PubChem BioAssay data set” (2004).
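Interpolation was linear, between the two tested concentrations surrounding the appropriate level; five concentrations were tested over 48 hours in 96-well plates. The concentration for 50% growth inhibition is given as GI50.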 Calls of active or inactive are those of the source. Cut-off read from the data, not from the text of the source: active = GI50 up to about 1.1 µM and inactive = higher.

Assays:
Test in all cases: NCI-60 cell line screen, 48 h
[1] = tested on: A549
[2] = tested on: COLO 205
[3] = tested on: HCC 2998
[4] = tested on: HOP-92
[5] = tested on: Hs-578T
[6] = tested on: LOX IMVI
[7] = tested on: MCF7
[8] = tested on: MDA-MB-435
[9] = tested on: MDA-N
[10] = tested on: MOLT-4
[11] = tested on: Malme-3M
[12] = tested on: NCI-H226
[13] = tested on: NCI-H23
[14] = tested on: NCI-H522
[15] = tested on: NCI/ADR-RES
[16] = tested on: RPMI-8226
[17] = tested on: RXF 393
[18] = tested on: SN12C
[19] = tested on: U-251
[20] = tested on: UACC-62

Measured: GI50

O=C(CCC(=O)c1ccsc1)c1ccsc1
inactive: [1] > 100 µM | [2] > 100 µM | [3] > 100 µM | [4] > 100 µM | [5] > 100 µM | [6] > 100 µM | [7] 74.8 µM | [8] > 100 µM | [9] > 100 µM | [10] > 100 µM | [11] > 100 µM | [12] > 100 µM | [13] > 100 µM | [14] > 100 µM | [15] > 100 µM | [16] > 100 µM | [17] > 100 µM | [18] > 100 µM | [19] > 100 µM | [20] > 100 µM

CC[C@@H]1CSC(/C=C/C2OC3OC(C)(C)OC3C3OC(C)(C)OC23)=N1 (stereo not given in full)
inactive: [1] 22.5 µM | [2] 5.32 µM | [3] 3.03 µM | [4] 3.7 µM | [5] 17.9 µM | [6] 6.53 µM | [7] 4.58 µM | [8] 4.15 µM | [9] 4.5 µM | [10] 4.54 µM | [11] 10.9 µM | [12] 16.4 µM | [13] 5.05 µM | [14] 3.18 µM | [15] 12.7 µM | [16] 5.78 µM | [17] 3.4 µM | [18] 11.1 µM | [19] 13.6 µM | [20] 13.9 µM
